Laboratory results from a melting point compilation (Tetko et al.).

Row | SMILES | melting point [°C]
1 | CC(C)=CCCC(C)=CC=CC(C)=CC=CC(C)=CC=CC=C(C)C=CC=C(C)C=CC1=C(C)CCCC1(C)C | 178
2 | O=C1OC(c2ccccc2)(c2ccccc2)c2ccccc21 | 120
3 | CCC(C)(C)OC(N)=O | 86
4 | NC1=C(C(=O)Nc2ccccc2)C(c2ccc(Br)cc2)C2Oc3ccccc3C2O1 (stereo unspecified) | 282
5 | CCOC(=O)c1cc(C)nc(Cl)n1 | 56.5 to 59
6 | CC(C)CCCC(C)C1CCC2C3CCC4CCCCC4(C)C3CCC12C (stereo unspecified) | 79 to 80
7 | Cc1ccc(N2CSc3nnc(-c4cccc([N+](=O)[O-])c4)n3C2)cc1 | > 300
8 | CCCCCCCCCCOc1ccc(/C=N/c2ccc(/C=C/C(=O)OCC)cc2)cc1 | 114 to 115
9 | Cc1ccc(Cl)c(O)c1F | 48
10 | Cc1cc(-c2ccccc2)nc2cc3nc(-c4ccccc4)cc(C)c3cc12 | 284 to 285
11 | C#CCCCCC | -81
12 | Oc1cc(C(F)(F)F)nc(S)n1 | 251
13 | N#Cc1ccc(N)c2ccccc12 | 176
14 | Nc1ccc2c(c1)C(=O)c1ccccc1-2 | 152 to 157
15 | O=Cc1cccn1-c1ccc(Cl)cc1 | 92 to 96
16 | CC(=O)OCC(=O)C1(O)CCC2(O)C3CCC4=CC(=O)CCC4(C)C3CCC12C (stereo unspecified) | 236
17 | O=[N+]([O-])c1cccnc1NC1CC1 | 61 to 63
18 | N=C(N)NC(N)=S | 172

Row | SMILES | melting point [°C]
19 | CC1(C)OC(C)(C(O)C2CCCCC2)CCC1C(=O)O (stereo unspecified) | 181
20 | CC1=C2C3OC(=O)C(C)C3CCC2(C)C=CC1=O (stereo unspecified) | 175
21 | Clc1c(Cl)c(Cl)c(C(Cl)Cl)c(Cl)c1Cl | 120
22 | FC(F)(F)Oc1ccccc1 | -50
23 | COC1OC(COC(C)=O)C(OC2OC(COC(C)=O)C(OC(C)=O)C(OC(C)=O)C2OC(C)=O)C(OC(C)=O)C1OC(C)=O (stereo unspecified) | 131
24 | O=C1N[C@H](Cc2ccccc2)CO1 | 87 to 90
25 | CCCCNCC(O)c1ccc(O)cc1 (stereo unspecified) | 124
26 | C1CC2CCC1C2 | 87.5
27 | COC(=O)c1cnccn1 | 58
28 | O=C1NN(c2ccccc2)C(=O)/C1=C/c1ccccc1 | 275
29 | CN(C)CCc1c[nH]c2ccc(O)cc12 | 146
30 | ClCOc1ccc(Cl)cc1 | 29 to 30
31 | O=C(c1cccc2ccccc12)C(Br)c1ccccc1 (stereo unspecified) | 64
32 | CON(C)C(=O)C=P(c1ccccc1)(c1ccccc1)c1ccccc1 | 183
33 | CCOC(=O)c1cn(-c2ccc(F)cc2F)c2nc(Cl)c(F)cc2c1=O | 212 to 215
34 | CCC1(O)CCC2C3CCC4=CC(=O)CCC4C3CCC21C (stereo unspecified) | 140
35 | C[Si](C)(c1ccccc1)[Si](C)(C)c1ccccc1 | 33 to 38

Now from value to molecule:

Row | melting point [°C] | SMILES
36 | 295 to 297 | O=C(O)c1ccc(C(=O)O)c(Br)c1
37 | 170 | CCC(C(=O)O)c1ccccc1C(=O)O (stereo unspecified)
38 | 171 to 173 | Cc1cc(C(=O)O)c(C)n1Cc1ccncc1
39 | 139 | COc1cc(C/C(=N\O)C(=O)O)ccc1O
40 | 72 | COC(=O)c1cc(Br)ccc1N
41 | 195 to 201 | Cc1ccc(O)c(I)n1
42 | 125 | CCOC(=O)c1ccc2cn[nH]c2c1
43 | 81 | CCC(Oc1ccccc1)C(=O)O (stereo unspecified)
44 | 95 to 96 | Cn1nc(-c2cccs2)cc1CO
45 | 200 to 215 | O=C(O)c1cnccc1Cl
46 | 80 | COc1ccc2cc(CCC(C)=O)ccc2c1
47 | 102 | CCCCC1C(=O)NN(c2ccccc2)C1=O (stereo unspecified)
48 | 143 to 144 | O=c1c(Br)c(Br)cnn1-c1ccccc1
49 | 265 | Nc1nn2c(-c3ccccc3)cc(=O)[nH]c2c1/N=N/c1ccccc1
50 | 103 to 105 | O=C(OCc1ccccc1Cl)ON1C(=O)CCC1=O
51 | 97 to 100 | Cn1ncc2c(Cl)ncnc21
